Measured values: US7939661B2, “Pyridine, quinoline and pyrimidine derivatives” (Hoffman-La Roche Inc., priority 2006, dated 2011)

Target: T1, human subtype 5 somatostatin receptor (Homo sapiens, UniProt P35346)
T1 construct: host or cells: CHO cells, stably transfected; membranes prepared from them
Assay: radioligand replacement (binding) assay, membranes of CHO cells expressing human SSTR5, 125I-labeled 11-Tyr somatostatin-14 tracer
Details: human SSTR5, CHO cell membranes, 0.05 nM 125I-labeled 11-Tyr somatostatin-14, 1 h at rt; Ki from IC50 by Cheng-Prussoff equation
Method: A CHO cell line stably transfected with a plasmid encoding the human subtype 5 somatostatin receptor (GenBank accession number D16827) was obtained from Euroscreen. Cells were cultured and used for binding and functional assays.
Membranes of these cells were prepared by sonication in the presence of protease inhibitors and subsequent fractionating centrifugation. The protein concentration in the membrane preparation was determined using a commercial kit (BCA kit, Pierce, USA). Membranes were stored at −80° C. until use. After thawing membranes were diluted in assay buffer (50 mM Tris-HCl at pH 7.4, 5 mM MgCl2 and 0.20% BSA) and subjected to Dounce homogenization.
For binding studies, 0.1 mL membrane suspension, corresponding to approximately 6×10^−15 mol receptor, was incubated for 1 h at rt with 0.05 nM ^125I-labeled tracer (11-Tyr somatostatin-14, Perkin-Elmer) and either test compounds in varying concentrations or, for the determination of non-specific binding, 0.001 mM non-labeled somatostatin-14. The incubation was stopped by filtration through GF/B glassfiber filters and washing with ice-cold wash buffer (50 mM Tris-HCl at pH 7.4). The bound radioactivity was measured after application of a scintillation cocktail (Microscint 40) and expressed as disintegrations per minute (dpm).
The receptor concentration was determined in a prior saturation experiment where a fixed, arbitrary amount of membranes was incubated with a concentration range of radio-labeled tracer. This allows estimating the total number of specific binding sites per amount of protein (i.e., Bmax), typically between 1 and 5 pmol/mg.
The concentration of the test compound required to result in half maximal inhibition of binding of the radio-labeled tracer (IC50) was estimated from a concentration-versus-dpm graph. The binding affinity (Ki) was calculated from the IC50 by applying the Cheng-Prussoff equation for single binding sites.

T1 sequence (P35346 whole entry): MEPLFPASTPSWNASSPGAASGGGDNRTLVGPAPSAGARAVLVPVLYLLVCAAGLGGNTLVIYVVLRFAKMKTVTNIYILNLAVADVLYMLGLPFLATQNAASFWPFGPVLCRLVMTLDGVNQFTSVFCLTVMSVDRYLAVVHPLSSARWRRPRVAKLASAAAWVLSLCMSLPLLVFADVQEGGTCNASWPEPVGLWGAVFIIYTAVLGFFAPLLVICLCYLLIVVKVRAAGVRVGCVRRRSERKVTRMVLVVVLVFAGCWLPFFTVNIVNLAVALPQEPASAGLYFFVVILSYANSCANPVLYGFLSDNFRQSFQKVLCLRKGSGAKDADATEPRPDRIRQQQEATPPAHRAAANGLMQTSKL

Row | SMILES | Ki
1 | CCOc1cc(CN2CCC(Nc3cnc(N)c(C)c3)CC2)cc(OCC)c1-c1ccc(F)cc1 [Example 79, N^5-[1-(2,6-diethoxy-4′-fluoro-biphenyl-4-ylmethyl)-piperidin-4-yl]-3-methyl-pyridine-2,5-diamine] | 0.025 µM
2 | CCOc1cc(CN2CCC(Nc3cnc4ccccc4c3)CC2)ccc1OC(F)F [Example 99, [1-(4-difluoromethoxy-3-ethoxy-benzyl)-piperidin-4-yl]-quinolin-3-yl-amine] | 0.062 µM
3 | CCOc1cc(CN2CCC(Nc3ccnc(C)c3)CC2)ccc1OCC(C)C [Example 122, [1-(3-ethoxy-4-isobutoxy-benzyl)-piperidin-4-yl]-(2-methyl-pyridin-4-yl)-amine] | 0.492 µM
